US11957759B1, “Rapidly accelerated fibrosarcoma (RAF) degrading compounds and associated methods of use” (Arvinas Operations, Inc., priority 2022, dated 2024)

How the values were obtained:
B-RAF G466V = biological target: T1, B-RAF G466V (Homo sapiens, UniProt P15056, G466V); assay: Target protein degradation, assay D: T-Rex 293 cells, HA-BRAF_G466V, 384 well format; assay type: cell-based; conditions: T-Rex 293 HA-BRAF_G466V cells, 24 hours, Examples 83-269; for DC50: Assay D; for Dmax: T-REx-293, Assay D
T1 construct: expressed in transfected cells; host or cells: T-Rex 293 cells (Invitrogen #R71007)
Procedure, shortened: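 Degradation measured by high-content imaging of anti-HA immunofluorescence in fixed T-Rex 293 cells carrying inducible HA-BRAF G466V (1 ng/mL doxycycline), after 24 h PROTAC exposure at 37 °C over 300 nM–5 pM (1:3, 11 points, 0.5% DMSO). Outputs DC50 and Dmax as % of control; nuclei counts against DMSO wells gauge toxicity.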

B-RAF V600E = biological target: T2, B-RAF V600E (Homo sapiens, UniProt P15056, V600E); assay: Target protein degradation, assay C: T-Rex 293 cells, HA-BRAF_V600E, 384 well format; assay type: cell-based; conditions: T-Rex 293 HA-BRAF_V600E cells, 24 hours, Examples 83-269; for DC50: Assay C; for Dmax: T-REx-293, Assay C
T2 construct: expressed in transfected cells; host or cells: T-Rex 293 cells (Invitrogen #R71007)
Procedure, shortened: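 After 24 h exposure to an 11-point 1:3 series (300 nM–5 pM, 0.5% DMSO), fixed T-Rex 293 cells carrying HA-BRAF V600E (induced with 1 ng/mL doxycycline) were stained anti-HA and imaged. DC50 and Dmax were derived from BRAF intensity relative to control, and cytotoxicity from nuclear counts.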

T1 sequence (P15056 whole entry G466V): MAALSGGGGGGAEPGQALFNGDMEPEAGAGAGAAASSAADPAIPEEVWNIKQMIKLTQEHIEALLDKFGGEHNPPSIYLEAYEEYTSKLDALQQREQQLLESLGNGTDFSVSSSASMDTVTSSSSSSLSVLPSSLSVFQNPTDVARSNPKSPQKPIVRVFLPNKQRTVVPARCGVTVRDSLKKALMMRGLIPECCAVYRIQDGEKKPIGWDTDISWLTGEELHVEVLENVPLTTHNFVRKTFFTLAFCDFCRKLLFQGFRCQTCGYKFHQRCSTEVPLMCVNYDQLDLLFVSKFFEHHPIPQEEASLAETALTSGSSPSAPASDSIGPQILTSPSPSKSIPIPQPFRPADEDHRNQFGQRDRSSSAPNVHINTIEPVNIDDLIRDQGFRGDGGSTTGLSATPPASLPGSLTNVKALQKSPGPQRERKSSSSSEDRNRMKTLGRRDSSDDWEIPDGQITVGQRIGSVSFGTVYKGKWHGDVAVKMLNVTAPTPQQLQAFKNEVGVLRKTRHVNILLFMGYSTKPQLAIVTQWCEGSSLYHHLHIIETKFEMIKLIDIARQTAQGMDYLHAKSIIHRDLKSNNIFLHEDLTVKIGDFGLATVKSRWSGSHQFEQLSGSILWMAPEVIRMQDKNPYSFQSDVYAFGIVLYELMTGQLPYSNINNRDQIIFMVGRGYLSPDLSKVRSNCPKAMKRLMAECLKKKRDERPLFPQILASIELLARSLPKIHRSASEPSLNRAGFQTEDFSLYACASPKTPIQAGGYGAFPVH
T2 sequence (P15056 whole entry V600E): as the sequence (P15056 whole entry G466V) above, with V466G, V600E counted along it

Row | DC50 (B-RAF G466V) [nM] | Dmax (B-RAF G466V) [%] | DC50 (B-RAF V600E) [nM] | Dmax (B-RAF V600E) [%] | SMILES
1 | 1 to 10 | 35 to 70 | 5 to 50 | 35 to 70 | N#Cc1c(NS(=O)(=O)N2CC[C@@H](F)C2)ccc(F)c1Oc1ccc2ncn(-c3ccc(N4CCC(CN5CC6(C5)CN(c5ccc7c(c5)CN(C5CCC(=O)NC5=O)C7=O)C6)CC4)cc3)c(=O)c2c1 (stereo partly drawn) [Example 85, (3R)-N-{2-cyano-3-[(3-{4-[4-({6-[2-(2,6-dioxopiperidin-3-yl)-1-oxo-2,3-dihydro-1H-isoindol-5-yl]-2,6-diazaspiro[3.3]heptan-2-yl}methyl)piperidin-1-yl]phenyl}-4-oxo-3,4-dihydroquinazolin-6-yl)oxy]-4-fluorophenyl}-3-fluoropyrrolidine-1-sulfonamide]
2 | 1 to 10 | 35 to 70 | 50 to 500 | 35 to 70 | N#Cc1c(NS(=O)(=O)N2CC[C@@H](F)C2)ccc(F)c1Oc1ccc2ncn(-c3ccc(N4CCN(CC5(F)CCN(c6ccc7c(c6)CN([C@H]6CCC(=O)NC6=O)C7=O)CC5)CC4)cc3)c(=O)c2c1 [Example 223, (3R)-N-(2-cyano-3-{[3-(4-{4-[(1-{2-[(3S)-2,6-dioxopiperidin-3-yl]-1-oxo-2,3-dihydro-1H-isoindol-5-yl}-4-fluoropiperidin-4-yl)methyl]piperazin-1-yl}phenyl)-4-oxo-3,4-dihydroquinazolin-6-yl]oxy}-4-fluorophenyl)-3-fluoropyrrolidine-1-sulfonamide]
3 | ≤ 1 | ≤ 35 | 50 to 500 | 35 to 70 | N#Cc1c(NS(=O)(=O)N2CC[C@@H](F)C2)ccc(F)c1Oc1ccc2ncn(-c3ccc(N4CCN(CC5CCN(c6ccc7c(c6)CN(C6CCC(=O)NC6=O)C7=O)CC5)CC4)cn3)c(=O)c2c1 (stereo partly drawn) [Example 83, (3R)-N-{2-cyano-3-[(3-{5-[4-({1-[2-(2,6-dioxopiperidin-3-yl)-1-oxo-2,3-dihydro-1H-isoindol-5-yl]piperidin-4-yl}methyl)piperazin-1-yl]pyridin-2-yl}-4-oxo-3,4-dihydroquinazolin-6-yl)oxy]-4-fluorophenyl}-3-fluoropyrrolidine-1-sulfonamide]
4 | 1 to 10 | 35 to 70 | 5 to 50 | 35 to 70 | Cc1c(N2CCC(CN3CCN(c4ccc(-n5cnc6ccc(Oc7c(F)ccc(NS(=O)(=O)N8CC[C@@H](F)C8)c7C#N)cc6c5=O)cc4)CC3)CC2)ccc2c1CN(C1CCC(=O)NC1=O)C2=O (stereo partly drawn) [Example 104, (3R)-N-{2-cyano-3-[(3-{4-[4-({1-[2-(2,6-dioxopiperidin-3-yl)-4-methyl-1-oxo-2,3-dihydro-1H-isoindol-5-yl]piperidin-4-yl}methyl)piperazin-1-yl]phenyl}-4-oxo-3,4-dihydroquinazolin-6-yl)oxy]-4-fluorophenyl}-3-fluoropyrrolidine-1-sulfonamide]
5 | 10 to 30 | 35 to 70 | 5 to 50 | ≤ 35 | N#Cc1c(NS(=O)(=O)N2CC[C@@H](F)C2)ccc(F)c1Oc1ccc2ncn(-c3ccc(N4CCC(CN5CCC(Oc6ccc7c(c6)C(=O)N(C6CCC(=O)NC6=O)C7=O)CC5)CC4)nc3)c(=O)c2c1 (stereo partly drawn) [Example 149, (3R)-N-(2-cyano-3-{[3-(6-{4-[(4-{[2-(2,6-dioxopiperidin-3-yl)-1,3-dioxo-2,3-dihydro-1H-isoindol-5-yl]oxy}piperidin-1-yl)methyl]piperidin-1-yl}pyridin-3-yl)-4-oxo-3,4-dihydroquinazolin-6-yl]oxy}-4-fluorophenyl)-3-fluoropyrrolidine-1-sulfonamide]
6 | 1 to 10 | ≤ 35 | > 500 |  | N#Cc1c(NS(=O)(=O)N2CC[C@@H](F)C2)ccc(F)c1Oc1ccc2ncn(-c3cnc(N4CCC(C5CN(c6ccc7c(c6)C(=O)N(C6CCC(=O)NC6=O)C7=O)C5)CC4)nc3)c(=O)c2c1 (stereo partly drawn) [Example 155]
7 | 10 to 30 | ≤ 35 | 50 to 500 | 35 to 70 | N#Cc1c(NS(=O)(=O)N2CC[C@@H](F)C2)ccc(F)c1Oc1ccc2ncn(-c3ccc(N4CCC(CN5CCN(CC6CCN(c7ccc8c(c7)CN([C@H]7CCC(=O)NC7=O)C8=O)CC6)CC5)CC4)cc3)c(=O)c2c1 [Example 185, (3R)-N-{2-cyano-3-[(3-{4-[4-({4-[(1-{2-[(3S)-2,6-dioxopiperidin-3-yl]-1-oxo-2,3-dihydro-1H-isoindol-5-yl}piperidin-4-yl)methyl]piperazin-1-yl}methyl)piperidin-1-yl]phenyl}-4-oxo-3,4-dihydroquinazolin-6-yl)oxy]-4-fluorophenyl}-3-fluoropyrrolidine-1-sulfonamide]
8 | 10 to 30 | 35 to 70 | > 500 |  | CN(c1ccc(-n2cnc3ccc(Oc4c(F)ccc(NS(=O)(=O)N5CC[C@@H](F)C5)c4C#N)cc3c2=O)cc1)C1CCC(N2CCN(c3ccc4c(c3)CN([C@H]3CCC(=O)NC3=O)C4=O)CC2)CC1 (stereo partly drawn) [Example 225, (3R)-N-(2-cyano-4-fluoro-3-{[3-(4-{methyl[(1s,4s)-4-(4-{2-[(3S)-2,6-dioxopiperidin-3-yl]-1-oxo-2,3-dihydro-1H-isoindol-5-yl}piperazin-1-yl)cyclohexyl]amino}phenyl)-4-oxo-3,4-dihydroquinazolin-6-yl]oxy}phenyl)-3-fluoropyrrolidine-1-sulfonamide]
9 | ≤ 1 | ≤ 35 | 50 to 500 | ≤ 35 | N#Cc1c(NS(=O)(=O)N2CC[C@@H](F)C2)ccc(F)c1Oc1ccc2ncn(-c3ccc(N4CC(C5CN(c6ccc7c(c6)C(=O)N(C6CCC(=O)NC6=O)C7=O)C5)C4)nc3)c(=O)c2c1 (stereo partly drawn) [Example 158, (3R)-N-(2-cyano-3-{[3-(6-{1'-[2-(2,6-dioxopiperidin-3-yl)-1,3-dioxo-2,3-dihydro-1H-isoindol-5-yl]-[3,3'-biazetidin]-1-yl}pyridin-3-yl)-4-oxo-3,4-dihydroquinazolin-6-yl]oxy}-4-fluorophenyl)-3-fluoropyrrolidine-1-sulfonamide]
10 | 1 to 10 | 35 to 70 | 50 to 500 | 35 to 70 | N#Cc1c(NS(=O)(=O)N2CC[C@@H](F)C2)ccc(F)c1Oc1ccc2ncn(-c3ccc(N4CCC5(CC4)CC(OC4CCN(c6ccc7c(c6)CN([C@H]6CCC(=O)NC6=O)C7=O)CC4)C5)cc3)c(=O)c2c1 [Example 250, (3R)—N-(2-cyano-3-{[3-(4-{2-[(1-{2-[(3S)-2,6-dioxopiperidin-3-yl]-1-oxo-2,3-dihydro-1H-isoindol-5-yl}piperidin-4-yl)oxy]-7-azaspiro[3.5]nonan-7-yl}phenyl)-4-oxo-3,4-dihydroquinazolin-6-yl]oxy}-4-fluorophenyl)-3-fluoropyrrolidine-1-sulfonamide]
11 | 1 to 10 | ≤ 35 | 5 to 50 | 35 to 70 | N#Cc1c(NS(=O)(=O)N2CC[C@@H](F)C2)ccc(F)c1Oc1ccc2ncn(-c3ccc(N4CCN(CC5CCN(c6ccc(C7CCC(=O)NC7=O)nc6)CC5)CC4)cc3)c(=O)c2c1 (stereo partly drawn) [Example 95, (3R)-N-{2-cyano-3-[(3-{4-[4-({1-[6-(2,6-dioxopiperidin-3-yl)pyridin-3-yl]piperidin-4-yl}methyl)piperazin-1-yl]phenyl}-4-oxo-3,4-dihydroquinazolin-6-yl)oxy]-4-fluorophenyl}-3-fluoropyrrolidine-1-sulfonamide]
